One block for each molecule: values may come before it.
What was measured:
[1] = Calcium, magnesium and zinc balance in rats receiving calcium free diet
From the text: Male Sprague-Dawley rats (about 6-7 weeks), with an initial weight between 220 g to 250 g, were randomly divided into different treatment groups. All the rats were housed in individual metabolic cages in a temperature-controlled room. Each rat received free access to the normal diet (Table 34) before the experiment. Both normal and calcium free diets (Table 34) were used in this set of studies. De-ionized water was provided ad libitum. All the rats were weighed before treatment.
In each study, there were seven treatment groups. […] Rats participating in the normal diet study received normal diet ad libitum throughout. Rats participating in the group of calcium free diet received the calcium free food ad libitum starting five days before and throughout treatment. In both study groups, animals received one dose a day for five days. […] Values of dosage and dietary intake were measured for the calculation of elemental balance. […] Daily elemental dosages, similar to that of human's, are 53.14 mg/kg for calcium, 0.38 to 55 mg/kg/day for magnesium and 0.017 to 2.5 mg/kg/day for zinc. […] The vehicle for preparing each dose was de-ionized water. The concentration of calcium in all dosage preparations was 15.94 mg/mL. One mL of each preparation was administered by gavage. Body weight, elemental dosage and diet consumption were recorded daily.
Animals were housed individually in a metabolic cage five days before the study. Food consumption was evaluated daily. Urine and feces were collected daily for four days and the content of calcium, magnesium and zinc was determined. On Day 5, each animal received its treatment. […] Immediately after blood collection, the animal was then sacrificed with an overdose of isoflourane. Each blood sample was centrifuged at 1900 rpm at room temperature; plasma was harvested and stored at −20° C. until analysis. Urine was measured daily; it was diluted with de-ionized water, filtered and an aliquot was stored at −20° C. until analysis. Daily fecal output was collected and lyophilized. Each sample was weighed and digested using a mixture of three volume of nitric acid and one volume of perchloric acid. For every gram of dried feces, 10 mL of acid mixture was added. Each sample was digested for three days. The volume of the digested sample was measured and an aliquot of the digest was stored at −20° C. until analysis. The content of calcium, magnesium and zinc in plasma, feces and urine were determined using ICP-OES.
Cumulated calcium balance and % cumulated net calcium balance were calculated using equations (1) and (2), except, the sum of daily intake and excretion was used for calculation. The balance for magnesium and zinc was also calculated using the concept of equations (1) and (2). Cumulated elemental balance and % cumulated net elemental balance were calculated in a similar fashion as described above.
All results were analyzed using two-way ANOVA. […] The data are presented as mean±S.D. and mean±S.E.M. in tables and figures, respectively.

[2] = humans; cited from earlier work
[3] = fortified foods, dual isotope techniques; cited from earlier work
[4] = rats; cited from earlier work
[5] = according to the literature; cited from earlier work

Bioavailability of calcium compared to calcium carbonate ([1]; Tables 36 and 40, dependent on the diet condition): at least 2 fold
Cumulative net percentage of calcium ([1]; calcium free diet, Day 1): −30.6 ± 51.3 ^ %
Cumulative net percentage of calcium ([1]; calcium free diet, Day 2): −9.88 ± 26.5 ^ %
Cumulative net percentage of calcium ([1]; calcium free diet, Day 3): 4.88 ± 24.0 ^ %
Cumulative net percentage of calcium (calcium retention) ([1]; calcium free diet, Day 4): 11.1 ± 20.0 ^ %
Molecule: Calcium Acetate

Molecule: O=C([O-])[O-].[Ca+2] [calcium carbonate]
Amount of calcium absorbed (bioavailability) [2]: 24%

Molecule: [O]=[Zn] [zinc oxide]
Bioavailability of zinc [3]: approximately 24%

Molecule: [O]=[Mg] [magnesium oxide]
Bioavailability of magnesium [4]: 50%

Molecule: O=C([O-])CC(O)(CC(=O)[O-])C(=O)[O-].O=C([O-])CC(O)(CC(=O)[O-])C(=O)[O-].[Ca+2].[Ca+2].[Ca+2] [calcium citrate]
Bioavailability of calcium [5]: 30%

— patent publication US9308222B2, “Formulas comprising highly soluble elements and vitamins for the prevention and amelioration of osteoporosis” (priority 2008, dated 2016)
